Literature values in PubChem BioAssay AID1259409 (Chemical Carcinogenesis Research Information System (CCRIS), 2018).

Test system: rodent chemically induced tumor inhibition, incidence and multiplicity
Experiment: CCRIS tumor inhibitor studies
Details: Route [Inhibitor]: ORAL, Promoter: NONE USED

SMILES: C=C1C[C@H]2[C@@H]3C=C(C)C4=CC(=O)CC[C@]4(C)[C@H]3CC[C@]2(C)[C@@]1(OC(C)=O)C(C)=O
- tumour outcome (control, treated, inhibition, significance) (Carcinogen: NONE USED, Dose [Inhibitor]: 0, 0.1 MG/D IN DIET FOR THE DURATION OF STUDY (STUDY DURATION: LIFESPAN), Species: RAT, Strain/Sex: BDII/FEMALE, Target Tissue: Type of Lesion: UTERUS: ENDOMETRIAL CARCINOMA): 17/20 (85%), 0/20 (0%), 100%, not calculated
- tumour outcome (control, treated, inhibition, significance) (Carcinogen: NONE USED, Dose [Inhibitor]: 0, 0.2 MG/D IN DIET FOR THE DURATION OF STUDY (STUDY DURATION: LIFESPAN), Species: RAT, Strain/Sex: BDII/FEMALE, Target Tissue: Type of Lesion: UTERUS: ENDOMETRIAL CARCINOMA): 17/20 (85%), 0/19 (0%), 100%, not calculated
- tumour outcome (control, treated, inhibition, significance) (Carcinogen: NONE USED, Dose [Inhibitor]: 0, 0.4 MG/D IN DIET FOR THE DURATION OF STUDY (STUDY DURATION: LIFESPAN), Species: RAT, Strain/Sex: BDII/FEMALE, Target Tissue: Type of Lesion: UTERUS: ENDOMETRIAL CARCINOMA): 17/20 (85%), 0/17 (0%), 100%, not calculated

SMILES: CC(C)(C)c1cc(O)c(C(C)(C)C)cc1O
- tumour outcome (control, treated, inhibition, significance) (Carcinogen: BENZO[A]PYRENE, 50-32-8, Dose [Inhibitor]: 0.03 MMOL/G OF DIET DAILY STARTING 8 D BEFORE AND CONTINUING THROUGH 3 D AFTER CARCINOGEN TREATMENT FOLLOWED BY OBSERVAT, Species: MOUSE, Strain/Sex: ICR/FEMALE, Target Tissue: Type of Lesion: FORESTOMACH: NEOPLASM, Dose [Carcinogen]: 1 MG IN 0.2 ML CORN OIL 2/WK FOR 4 WK): 90%, 95%, -6%, not significant

SMILES: CC1=C(/C=C/C(C)=C/C=C/C(C)=C/C(=O)Nc2ccc(O[C@@H]3O[C@H](C(=O)O)[C@@H](O)C(O)C3O)cc2)C(C)(C)CCC1 (stereo not given in full)
- tumour outcome (control, treated, inhibition, significance) (Carcinogen: 7,12-DIMETHYLBENZ[A]ANTHRACENE, 57-97-6, Dose [Inhibitor]: 0, 1 MMOL/KG IN DIET FOR THE DURATION OF STUDY BEGINNING 1 WK PRIOR TO CARCINOGEN DOSE (STUDY DURATION: 105 WK), Species: RAT, Strain/Sex: SPRAGUE-DAWLEY/FEMALE, Target Tissue: Type of Lesion: MAMMARY GLAND: TUMOR, Dose [Carcinogen]: 15 MG IN 1 ML SESAME OIL ONCE): 88%, 36%, 59%, not significant
